From patent US10336696B2, “Bicarbazole compound, photo-curable composition, cured product thereof, curable composition for plastic lens, and plastic lens” (DIC Corporation, priority 2014, dated 2019)

Experiments:
[1] = Refractive index of compounds (NMP solutions, extrapolated); assay type: physicochemical; conditions: compound diluted with NMP, three concentrations, Abbe refractometer, 589 nm (D line)
Method: The refractive index of each of the compounds was determined as follows. A compound was diluted with N-methylpyrrolidone (NMP) to prepare three samples having different concentrations. Liquid refractive indices of the respective solutions were measured, and the measured data was extrapolated to calculate the refractive index.
Measuring device: Abbe refractometer NRA-2T, manufactured by Atago Co., Ltd.
Measurement wavelength: 589 nm (D line)

[2] = Solubility in o-phenylphenoxyethyl acrylate; assay type: physicochemical; set-up: key: A: Soluble; B: Insoluble; conditions: for Solubility, 10 mass %: compound concentration 10% by mass; for Solubility, 50 mass %: compound concentration 50% by mass
Method: The solubility was evaluated on the basis of whether a compound was soluble or insoluble in o-phenylphenoxyethyl acrylate. The evaluation was performed at two levels at which the compound concentration was 10% by mass and 50% by mass.

| Structure (SMILES) | Liquid refractive index [1] | Solubility, 10 mass % [2] | Solubility, 50 mass % [2] |
| --- | --- | --- | --- |
| C=Cn1c2ccccc2c2ccccc21 [Comparative Example 1, 9-vinylcarbazole, reference compound] | 1.674 | A | B |
| c1ccc2c(c1)[nH]c1ccc(-c3cccc4c3[nH]c3ccccc34)cc12 [Synthesis Example 1, 1,3′-bicarbazole] | 1.76 | A | B |
| c1ccc2c(c1)[nH]c1ccc(-c3ccc4[nH]c5ccccc5c4c3)cc12 [Comparative Example 2, 3,3′-bicarbazole, reference compound] | 1.765 | B | B |

More lines, now with the values ahead:

| Liquid refractive index [1] | Solubility, 10 mass % [2] | Solubility, 50 mass % [2] | Structure (SMILES) |
| --- | --- | --- | --- |
| 1.723 | A | B | C=CC(=O)n1c2ccccc2c2cc(-c3cccc4c5ccccc5n(C(=O)C=C)c34)ccc21 [Example 1, 9,9′-diacryloyl-1,3′-bicarbazole] |
| 1.664 | A | A | C=CC(=O)OCCn1c2ccccc2c2cc(-c3cccc4c5ccccc5n(CCOC(=O)C=C)c34)ccc21 [Example 3, 9,9′-bis(acryloyloxyethyl)-1,3′-bicarbazole] |
| 1.735 | A | A | C=Cn1c2ccccc2c2cc(-c3cccc4c5ccccc5n(C=C)c34)ccc21 [Example 2, 9,9′-divinyl-1,3′-bicarbazole] |
